Results from patent publication US20090130064A1, “DIFFERENTIATION OF STEM CELLS AND STABILIZATION OF PHENOTYPICAL PROPERTIES OF PRIMARY CELLS” (priority 2004, published 2009).

Tests used:
primary rat hepatocytes = assay: DNA synthesis ([methyl-3H]-thymidine) in EGF-stimulated primary rat hepatocytes; assay type: cell-based
Source text: (§1) Male outbred Sprague-Dawley rats (200-300 g, Iffa Credo, Brussels, Belgium) were kept under controlled environmental conditions (12-hr light-dark cycle) and fed a standard diet (Animafabo A04, water ad libitum). Hepatocytes were isolated by a two-step collagenase perfusion as described (De Smet et al. In ‘Methods in Molecular Biology, Vol. 107: Cytochrome P450 Protocols’, Philips I R and Shephard E A, eds., pp 295-301, Humana Press, Totowa, 1998). Cell liability was >90% as determined by trypan blue exclusion. Cells (0.4×10^5 cells/cm^2) were plated in MEM/M199 (3:1), containing BSA (1 mg/ml), bovine insulin (10 μg/ml), L-glutamine (2 mM), FBS (10% v/v) and antibiotics (7.3 IU/ml benzyl penicillin, 50 μg/ml streptomycin sulphate, 50 μg/ml kanamycin monosulphstep and 10 μg/ml sodium ampicillin). Four hours after plating, serum-containing medium was removed and fresh serum-free medium was added to the cultures. Culture medium was refreshed daily. EGF (50 ng/ml) was added 4 hours after plating. A 100 mM stock solution of 4-Me2N-BAVAH was prepared in ethanol.
Hepatocytes were cultured in triplicate in 35 mm tissue culture dishes (Beckton Dickinson, UK). Cells were incubated with [methyl-^3H]-thymidine (25 Ci/mmol (2 μCi/ml)) for 24 hours prior to harvesting. Its incorporation was measured by liquid scintillation counting (Wallac 1410; counting efficiency: 67.5%) after trichloroacetic acid precipitation of the DNA. Results are expressed as counts per minute (cpm) per μg of total cellular proteins. Protein concentration of the samples was determined according to the Bradford procedure (Bradford. Anal Biochem 72: 248-254, 1976), using BSA as a standard.

cyclin D1 = assay: Western blotting of cyclin D1 in primary rat hepatocytes; assay type: cell-based; conditions: 50 μM; 72 hours
Source text: as §1, with “EGF (50 ng/ml) was added 4 hours after plating. A 100 mM stock solution of 4-Me2N-BAVAH was prepared in ethanol.” left out
Total cell extracts were prepared as described previously (Papeleu et al. J Hepatol 39: 374-382, 2003) and proteins (25 or 50 μg per lane) were separated electrophoretically by SDS-PAGE and electroblotted onto nitrocellulose membranes (Amersham Pharmacia Biotech, Buckinghamshire, UK). […] Proteins were detected using the ECL detection system (Amersham Pharmacia Biotech, Buckinghamshire, UK) according to the manufacturer's recommendations.

HDAC = conditions: cited from earlier work
rat BMSC = assay: DNA synthesis by [methyl-3H] thymidine incorporation in differentiating rat BMSC; assay type: cell-based
Protocol: [methyl-3H] thymidine (25 μCiμmol, 2 μCi/ml) incorporation into trichloroacetic acid precipitated-DNA (Amersham Inc) was measured.
BMSC were, 24 h after splitting; cultivated in the presence of LSP cytokines, added either as a cocktail or separately on 10 ng/ml FN at 2.465 10^3 cells/cm^2. […] Media were changed every three days. Samples were taken 2, 4, 6, 12 and 18 h after splitting or media change. Cells were stimulated for 2 h before sampling with 2 μCi [methyl-^3H] thymidine (Amersham Pharmacia Biotech)/ml medium. [methyl-^3H] thymidine incorporation was measured using a scintillation counter (Wallac 1410) with a counting efficiency of 62.4%.

Cx32 = Cx32 expression (immunoblotting) in rat hepatocytes; assay type: cell-based; conditions: 1 μM TSA
Protocol: (§2) In all conditions, the hepatocytes were cultivated as a monolayer configuration, and samples were taken at days 1, 4 and 7 (D1, D4, D7) of the cultivation time.
Proteins (25 or 50 μg) were resolved on SDS-PAGE (7.5, 10 or 12%) and blotted afterwards onto nitrocellulose membranes. After blocking with non-fatty milk, membranes were incubated with appropriate concentrations of primary and secondary antibodies (HRP labeled). Proteins were detected using the ECL detection system (Amersham Biosciences). Primary antibodies: Cx26 (Zymed, 1/250), Cx32 (Sigma, 1/500), Cx43 (Zymed, 1/100).
(§3) Hepatocytes were fixed with cold ethanol, peremeabilised with Triton X-100 (Sigma) and blocked with non-fatty milk. Following incubation with appropriate concentrations of primary and secondary antibodies (FITC or TRITC labeled), samples were mounted with DAPI-containing Vectashield (Vector Laboratories). Detection was performed by fluorescence microscopy (Leica DMR/XA).

[1] = test system: gap junctional intercellular communication; assay: GJIC scrape loading/dye transfer assay; assay type: cell-based, rat; conditions: 1 μM TSA; from D4 on
Protocol: as §2
Scrape loading/dye transfer assay was performed as described by el-Fouly et al., 1987: 422-430. In brief, hepatocytes were scraped in the presence of 0.05% m/V Lucifer Yellow and incubated for 5 minutes at 37° C. The dye was then removed, cells were rinsed twice with PBS and fixed with 4% m/V paraformaldehyde. Evaluation was performed by fluorescence microscopy. The distance traveled by Lucifer Yellow from the scrape was used as a parameter to evaluate GJIC functionality.

histone H4 = assay: Acetylated histone H4 by immunocytochemistry in rat hepatocytes; assay type: cell-based; conditions: 1 μM TSA
Protocol: as §2, §3

rat hepatocytes = assay: Albumin ELISA in primary rat hepatocyte monolayers (conditions C1, C2); assay type: cell-based; conditions: 1 μM TSA; from D4 (C2) or D7 (C1) on
Protocol: as §2
ALB concentrations secreted into the media were analysed by competitive enzyme-linked immunosorbent assay (ELISA) as described (Koebe et al. Int J Artif Organs 17: 95-106, 1994). The ALB levels were normalized with respect to the media used.

[2] = 1 μM TSA first from 168 h cultivation on, sequential

SMILES | inhibitory effect on DNA replication (primary rat hepatocytes; 50 μM added at 24 hours or 48 hours) | EGF-induced DNA synthesis (primary rat hepatocytes; 50 μM from time of plating) | DNA synthesis (primary rat hepatocytes; 50 μM maintained until 48 hours) | reduction in 3H-thymidine incorporation compared to untreated control cultures (primary rat hepatocytes; 50 μM, withdrawal at 24 hours of culture, measured at 72 hours) [%] | cyclin D1 protein accumulation upon growth factor stimulation (cyclin D1) | HDAC inhibition, concentration range (HDAC) | cytotoxicity by microscopic analysis (rat BMSC) | cell death by microscopic analysis (rat BMSC; 1 μM TSA added from 24 and 96 h on, sequential) | [methyl-3H] thymidine incorporation (rat BMSC; [2]) | cell death by microscopic analysis (rat BMSC; [2]) | DNA synthesis compared with control (sequential without TSA) (rat BMSC; 1 μM TSA from 24, 96 and 168 h on, sequential LSP cytokines) | DNA synthesis compared with control (cocktail-TSA) (rat BMSC; 1 μM TSA from 24 and 96 h of cultivation on, cocktail of LSP cytokines) | cell death by microscopic analysis (rat BMSC; 1 μM TSA from 168 h, cocktail, day 7) | [methyl-3H] thymidine incorporation (DNA synthesis) (rat BMSC; 5 and 25 μM TSA) | [methyl-3H] thymidine incorporation (rat BMSC; first addition of 1 μM TSA from 168 h of cultivation on, cocktail) | expression of Cx32 (Cx32) | GJIC activity [1] | acetylation of histone H4 (histone H4) | albumin secretion (rat hepatocytes)
CN(C)c1ccc(C(=O)NCCCCC(=O)NO)cc1 [4-Me2N-BAVAH, 5-(4-dimethylaminobenzoyl)-aminovaleric acid hydroxamide] | less or no inhibitory effect | totally suppressed | no DNA synthesis occurred | 50.9±1.6 | completely failed to accumulate cyclin D1 protein | micromolar range | – | – | – | – | – | – | – | – | – | – | – | – | –
CC(C=CC(=O)NO)=CC(C)C(=O)c1ccc(N(C)C)cc1 (stereo not shown) [TSA] | – | – | – | – | – | – | cytotoxicity | cell death | no [methyl-^3H] thymidine incorporation | No death cells were observed | decrease of the DNA synthesis | increase of the DNA synthesis | no cell death had occurred | no incorporation | no [methyl-^3H] thymidine | induces the expressions | increases GJIC activity | hyperacetylation | improves albumin secretion
